The nature of data set [1]: Two-week repeated oral toxicological investigation in rats. The format is in vivo, rat. To be noted: rats (male, female), 2 weeks, dose figure missing ("a dose of mg/kg"). From the text: (§1) The compound of Example 5 was repeatedly administered orally to rats (male, female) over the period of 2 weeks to perform a toxicological investigation.
Data set [2] addresses T1, 5-HT3 receptor (Rattus norvegicus, UniProt P35563).
T1 construct: from tissue; host or cells: whole anesthetized rat (in vivo); endogenous receptor
T1 sequence (P35563 24-483): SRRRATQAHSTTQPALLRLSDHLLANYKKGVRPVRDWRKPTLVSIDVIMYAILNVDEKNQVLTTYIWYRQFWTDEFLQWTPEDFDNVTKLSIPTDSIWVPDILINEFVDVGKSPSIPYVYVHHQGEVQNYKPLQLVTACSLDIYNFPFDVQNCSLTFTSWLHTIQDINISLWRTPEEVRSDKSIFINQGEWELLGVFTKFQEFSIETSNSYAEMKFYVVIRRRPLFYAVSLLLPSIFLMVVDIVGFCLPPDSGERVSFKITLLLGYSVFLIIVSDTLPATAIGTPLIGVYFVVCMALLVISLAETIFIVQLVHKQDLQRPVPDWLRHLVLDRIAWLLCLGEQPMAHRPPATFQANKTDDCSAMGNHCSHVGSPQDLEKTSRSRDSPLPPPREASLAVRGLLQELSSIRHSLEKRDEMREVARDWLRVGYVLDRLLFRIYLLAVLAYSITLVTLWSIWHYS
As to the kind of experiment: 5-HT3 receptor antagonist activity: inhibition of 2-Me-5-HT-induced reduction in heart rate in anesthetized rats. It counts as in vivo. To be noted: iv (jugular vein) 5 minutes before 2-Me-5-HT 0.1 mg/kg, read-out: IC50 (the source's name). On the procedure: For the purpose of studying a receptor selectivity of the present compounds, the 5-HT3 receptor antagonist activity was tested in the following manner. Rats were anesthetized with urethane and heart rate was recorded through femoral artery. The 5-HT3 selective agonist, 2-methyl-5-hydroxytryptamine (2-Me-5-HT) was administered at 0.1 mg/kg through carotid arteries and transient reduction in heart rate was recorded. The test. compounds were administered through jugular vein at 5 minutes before the administration of 2-Me-5-HT, inhibitory rate of reduction in heart rate by the administration of 2-Me-5-HT was calculated and IC50 value was calculated from the inhibitory rate.

Data set [3] in a line: Chromosomal aberration test.
Data set [4] deals with gastric-emptying. As to the kind of experiment: Gastric-emptying promoting action (semi-solid test meal, fasted rats). The format is in vivo, rat. Conditions: relative to distilled water group (C/D×100). On the procedure: The present compounds were evaluated for the gastrointestinal prokinetic action, employing as an index the gastric-emptying promoting action. Fasted rats were orally given the test compound or distilled water. After 60 minutes, 3 ml of a test meal (a semi-solid food) was given into stomach by means of a probe. After 60 minutes, animals were sacrificed and stomach was excised and weighed. After washing out the gastric content, the stomach was again weighed to calculate the gastric content amount. The results were shown in the following table by calculating the gastric emptying rate (C) from the weight of the test meal given (A) and the weight of the test meal retained in the stomach (B), and expressing in terms of the gastric-emptying promoting rate to the gastric-emptying rate of the distilled water-given group(D).
Gastric-emptying rate(C)=(A-B)/A×100
Gastric-emptying promoting rate=C/D×100

A short description of data set [5]: Micronucleus test.
Excerpt: as §1

For data set [6], the target named is 5-HT4 receptor (Cavia porcellus, UniProt O70528). Description: Increase in contraction height of electrically stimulated longitudinal muscle of isolated guinea pig ileum (LMMP). The format is cell-based. On the set-up: key: +: indicates the increase in the contraction height; -: indicates no effect. To be noted: test concentration 10^-7 M. From the text:
Ileum was excised from guinea pigs to prepare longitudinal muscle samples with approximately 2 cm length. The sample was suspended in Krebs-Henseleit liquid bath supplied with a mixed gas (95% O2, 5% CO2) and subjected to electrical stimulation (1 msec, 0.1 Hz) to record contraction force isometrically. The test compounds were. dissolved in distilled water or DMSO and tested at a concentration of 10^-7 M (but 10^-6 M for Compound 11). The results are shown by the presence or absence of the increase in the contraction height by electrical stimulation before administration of the compound, wherein the symbol "+" indicates the increase in the contraction height, while "-" indicates no effect.
Whether or not the action of the above compounds is that via activation of 5-HT4 receptors was investigated using as 5-HT4 receptor antagonist, SDZ 205-557 (2-methoxy-4-amino-5-chlorobenzoic acid 2-(diethylamino)ethyl ester) described in Naunyn-Schmiedeberg's Arch Pharmacol (1992) 345:387-393. Thus, the investigation as to whether SDZ 205-557 can antagonize the increase in the contraction height of the above compounds using the longitudinal muscle preparation of the isolated guinea pig ileum can reveal that such increase in the contraction height is the action via activation of 5-HT4 receptors.

Data set [7] concerns gastric motility. As to the kind of experiment: Gastric motility after meal in beagle dogs (force transducer, Motility Index). The format is in vivo, dog (beagle). To be noted: 60 min after feeding, percentage to MI at 15 minutes before administration. The method, then:
The present compounds were investigated for the gastrointestinal motility activity by the following procedure, by which the gastrointestinal prokinetic action was confirmed.
Beagle dogs inserted with a forced transducer at the anterior wall of stomach were used after a convelescence period of more than one month.
Dogs fasted overnight were given a food (375 g of a dog food) and gastric motility after meal was determined. After 60 minutes of the feeding, the test compounds were intravenously injected and the promoting action on gastric motility after meal was determined. The area under contracting wave forms of gastric motility (Motility Index: MI) was calculated and expressed in terms of percentage to the MI at 15 minutes before the administration of the test compound.

The target of data set [8] is T2, 5-HT4 receptors (Rattus norvegicus, UniProt Q62758).
T2 construct: from tissue; host or cells: rat oesophageal tunica muscularis mucosae
T2 sequence (Q62758 whole entry): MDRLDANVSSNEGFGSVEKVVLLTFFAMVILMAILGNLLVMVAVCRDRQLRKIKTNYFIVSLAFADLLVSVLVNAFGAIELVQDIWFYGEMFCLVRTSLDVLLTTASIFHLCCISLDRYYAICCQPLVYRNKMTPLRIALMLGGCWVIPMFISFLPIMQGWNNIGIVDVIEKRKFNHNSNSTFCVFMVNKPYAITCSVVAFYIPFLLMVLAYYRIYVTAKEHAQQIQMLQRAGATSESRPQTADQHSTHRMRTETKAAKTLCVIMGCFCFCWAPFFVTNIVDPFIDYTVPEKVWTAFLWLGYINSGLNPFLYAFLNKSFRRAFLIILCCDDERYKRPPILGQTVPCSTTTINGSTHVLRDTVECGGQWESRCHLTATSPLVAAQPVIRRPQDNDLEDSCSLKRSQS
Description: Relaxation of carbachol-contracted rat oesophageal tunica muscularis mucosae. It counts as cell-based. On the procedure:
The agonistic activity of oxazabicyclo derivatives and Mosapride on 5-HT4 receptors was determined by the procedure mentioned in Naunyn-Schmiedeberg's Arch Pharmacol (1991) 343:439-446.
The rat oesophageal tunica muscularis mucosae were suspended in organ both containing Krebs-Henseleit solution aerated with a mixed gas (95% O2, 5% CO2) and contracted with carbachol (1×10^-6 M). After the contraction was stabilized, the cumulative administration of the compounds was performed to determine the relaxation of the rat oesophagus pre-contracted with carbachol. The concentration (ED50) to cause 50% relaxation of the carbachol-induced contraction was measured. The result is expressed in terms of -log ED50 and shown in the following table in which higher numerical value indicates higher activity.

Data set [9] in a line: Reverse mutation test (Ames test). (In general: The Ames test detects mutagens through reverse mutation in bacteria.)

pEC50: −log10 of the molar value. Read-outs that look alike come from different tables or passages of the source.

Sequence of 5-HT4 receptor (O70528 whole entry): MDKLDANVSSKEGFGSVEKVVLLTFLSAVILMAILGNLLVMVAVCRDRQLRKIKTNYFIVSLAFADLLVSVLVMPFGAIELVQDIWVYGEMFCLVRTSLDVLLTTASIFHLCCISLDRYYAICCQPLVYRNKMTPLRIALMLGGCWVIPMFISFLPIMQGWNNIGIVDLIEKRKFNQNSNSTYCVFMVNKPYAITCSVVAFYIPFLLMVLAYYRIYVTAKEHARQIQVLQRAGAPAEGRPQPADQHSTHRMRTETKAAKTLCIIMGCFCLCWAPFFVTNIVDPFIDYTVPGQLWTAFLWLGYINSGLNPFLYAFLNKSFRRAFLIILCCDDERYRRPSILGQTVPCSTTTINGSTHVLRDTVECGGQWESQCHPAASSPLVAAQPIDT

As a reminder, the pEC50 is the EC50 on a negative log10 scale, so that one unit is a factor of ten. As to `CCCCN1[C@@H]2COC[C@H]1C[C@@H](NC(=O)c1nn(C(C)C)c3ccccc13)C2` [Example 5, N-[endo-9-(n-Butyl)-3-oxa-9-azabicyclo[3.3.1]non-7-yl]-1-isopropyl-indazole-3-carboxamide], the toxicological changes result in data set [1] is listed as “no toxicological changes were observed”. Besides, the ED50 in [2] was found to be 0.0427 mg/kg. Moreover, the chromosomal aberration test entry in data set [3] is listed as “negative”. In addition, the figures for the Gastric-emptying promoting rate in [4] (0.03 mg/kg oral), in data set [4] (0.1 mg/kg oral) and in data set [4] (0.3 mg/kg oral) were 110.7, 124.2 and 127.5, respectively. In data set [5], the micronucleus test entry is on record as “negative”. Besides, the “LMMP: presence or absence of the increase in the contraction height by electrical stimulation” value in data set [6] is recorded as “+”. For the same compound, the “MI (Motility Index)” value in [7] (0.03 mg/kg iv) is given as 145.8%; in [7] (0.1 mg/kg iv), 208.2%; in data set [7] (0.3 mg/kg iv), 324.9%. The same compound had a pEC50 in data set [8] of 6.00. Further, in [9], the “reverse mutation test (Ames test)” value is given as “negative”. In [9] (overall from Ames, chromosomal aberration and micronucleus tests), the mutagenicity entry was “no mutagenicity was observed”.

With `CCOc1cc(N)c(Cl)cc1C(=O)NCC1CN(Cc2ccc(F)cc2)CCO1` (stereo not shown) [Mosapride, reference compound], the Gastric-emptying promoting rate in [4] (0.3 mg/kg oral) is 103.5; in data set [4] (1 mg/kg oral) it was 125.3; in data set [4] (3 mg/kg oral), 128.1. For the same compound, the “MI (Motility Index)” value in [7] (1 mg/kg iv) is on record as 151.0%. In data set [8] (ED50 = concentration to cause 50% relaxation of contraction by carbachol (1×10^-6 M), cumulative administration, read-out: Activity (-log ED50) (converted)), the EC50 is 34.7 µM.
